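Values below derive from 48-hour exposures of cells grown in 96-well plates, with endpoints linearly interpolated between the two concentrations bracketing the appropriate inhibition level. At the TGI there is no net growth.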
Key:
Assay in all cases: NCI tumour cell line growth inhibition, 48 h
[1] = test system: CAKI-1 renal
[2] = test system: HCT-15 colon
[3] = test system: RPMI-8226 leukemia
[4] = test system: RXF 393 renal
[5] = test system: PC-3 prostate
[6] = test system: EKVX NSCLC
[7] = test system: COLO 205 colon
[8] = test system: SNB-19 CNS
[9] = test system: BT-549 breast
[10] = test system: 786-0 renal

**Q.** Which TGI [1] does the source give for COC(=O)c1ccccc1/C=C1/Cc2ccccc2C1=O here?
**A.** > 100 µM

**Q.** What about the TGI [2] of the same compound?
**A.** 58.6 µM

**Q.** What about the TGI [3] of the same compound?
**A.** 49.5 µM

**Q.** What about the TGI [4] of the same compound?
**A.** > 100 µM

**Q.** What about the TGI [5] of the same compound?
**A.** > 100 µM

**Q.** What about the TGI [6] of the same compound?
**A.** > 100 µM

**Q.** And the TGI [7]?
**A.** > 100 µM

**Q.** How did the TGI [1] turn out when Cc1nn(C(=O)Cc2ccccc2)c2c1C(c1ccccc1O)SC(N)=N2 (stereo not given) was run?
**A.** > 100 µM

**Q.** And the TGI [2]?
**A.** > 100 µM

**Q.** And the TGI [3]?
**A.** > 100 µM

**Q.** And the TGI [8]?
**A.** > 100 µM

**Q.** What about the TGI [5] of the same compound?
**A.** > 100 µM

**Q.** What about the TGI [6] of the same compound?
**A.** > 100 µM

**Q.** What about the TGI [9] of the same compound?
**A.** > 100 µM

**Q.** And the TGI [7]?
**A.** > 100 µM

**Q.** And the TGI [10]?
**A.** > 100 µM

**Q.** Which TGI [2] does the source give for CC(C)(C)NC(=O)[C@H]1CC[C@H]2[C@@H]3CC=C4NC(=O)CC[C@]4(C)[C@H]3CC[C@]12C here?
**A.** > 100 µM

**Q.** What about the TGI [3] of the same compound?
**A.** > 100 µM

**Q.** And the TGI [8]?
**A.** > 100 µM

**Q.** And the TGI [4]?
**A.** > 100 µM

**Q.** And the TGI [5]?
**A.** > 100 µM

**Q.** What about the TGI [6] of the same compound?
**A.** > 100 µM

**Q.** What about the TGI [9] of the same compound?
**A.** > 100 µM

**Q.** And the TGI [7]?
**A.** > 100 µM

**Q.** What about the TGI [10] of the same compound?
**A.** > 100 µM

**Q.** Which results are given for COc1cc(/C=C2\C(=O)N(C(=O)Cc3ccccc3)N=C2C)ccc1O?
**A.** TGI [1]: > 100 µM; TGI [2]: > 100 µM; TGI [3]: > 100 µM; TGI [8]: > 100 µM; TGI [6]: > 100 µM; TGI [7]: > 100 µM; TGI [10]: > 100 µM

**Q.** With COc1cc2c(cc1OC)C(N(C)C)C(c1ccccc1)=C2Cl (stereo not given) as the compound, how does the TGI [2] read?
**A.** 34.1 µM

**Q.** And the TGI [3]?
**A.** 46.3 µM

**Q.** What about the TGI [8] of the same compound?
**A.** > 100 µM

**Q.** What about the TGI [4] of the same compound?
**A.** 29.3 µM

**Q.** And the TGI [7]?
**A.** 32.6 µM

**Q.** What about the TGI [10] of the same compound?
**A.** 73.9 µM

**Q.** What does the source list for CN(C)C(CN)CC1=C(CC(CN)N(C)C)CCC1 (stereo not given)?
**A.** TGI [1]: > 100 µM; TGI [2]: > 100 µM; TGI [3]: > 100 µM; TGI [8]: > 100 µM; TGI [4]: > 100 µM; TGI [6]: > 100 µM; TGI [7]: > 100 µM

**Q.** For COc1ccc(CC(CO)NC(=O)OCc2ccccc2)cc1Oc1ccc(CC(CO)NC(=O)OCc2ccccc2)cc1 (stereo not given), which TGI [1] is on record?
**A.** 44.5 µM

**Q.** And the TGI [2]?
**A.** > 100 µM

**Q.** And the TGI [3]?
**A.** 30.9 µM

**Q.** What about the TGI [8] of the same compound?
**A.** 51.8 µM

**Q.** What about the TGI [5] of the same compound?
**A.** 27.1 µM

**Q.** And the TGI [6]?
**A.** 19.1 µM

**Q.** What about the TGI [9] of the same compound?
**A.** 32.3 µM

**Q.** What about the TGI [7] of the same compound?
**A.** 64.9 µM

**Q.** Which TGI [1] does the source give for CCC1=CCC23C(=O)C=CC(=O)C2(C1)C(=O)c1cccc(OC)c1C3=O (stereo not given) here?
**A.** 26.1 µM

**Q.** And the TGI [2]?
**A.** 37 µM

**Q.** And the TGI [3]?
**A.** 33.4 µM

**Q.** And the TGI [8]?
**A.** 53.7 µM

**Q.** And the TGI [4]?
**A.** 21 µM

**Q.** And the TGI [5]?
**A.** 28.4 µM

**Q.** And the TGI [6]?
**A.** 32.9 µM

**Q.** And the TGI [7]?
**A.** 28.4 µM

**Q.** What about the TGI [10] of the same compound?
**A.** 24.8 µM

**Q.** For CCCCOC(C)(C)/C=C/C(O)[C@](C)(O)[C@H]1[C@H](O)C[C@@]2(C)[C@@H]3CCc4c(cc(OC5OC(CO)C(O)C(O)C5O)c(O)c4C)C3(C)C(=O)C[C@]12C (stereo not given in full), which TGI [1] is on record?
**A.** > 100 µM

**Q.** And the TGI [2]?
**A.** > 100 µM

**Q.** And the TGI [8]?
**A.** > 100 µM

**Q.** What about the TGI [4] of the same compound?
**A.** > 100 µM

**Q.** And the TGI [5]?
**A.** > 100 µM

**Q.** And the TGI [6]?
**A.** > 100 µM

**Q.** And the TGI [9]?
**A.** > 100 µM

**Q.** And the TGI [7]?
**A.** > 100 µM

**Q.** What about the TGI [10] of the same compound?
**A.** > 100 µM

**Q.** For COc1ccccc1NC(=O)CC(=O)N1N=C(C)C(N=Nc2ccc(S(N)(=O)=O)cc2)C1=O (stereo not given), which TGI [1] is on record?
**A.** > 100 µM

**Q.** And the TGI [2]?
**A.** > 100 µM

**Q.** What about the TGI [3] of the same compound?
**A.** > 100 µM

**Q.** What about the TGI [8] of the same compound?
**A.** > 100 µM

**Q.** And the TGI [4]?
**A.** > 100 µM

**Q.** And the TGI [6]?
**A.** > 100 µM

**Q.** What about the TGI [7] of the same compound?
**A.** > 100 µM

**Q.** And the TGI [10]?
**A.** > 100 µM

**Q.** Which results are given for N#Cc1c(-c2ccccc2)/c(=C\Nc2ccc(Cl)cc2)c(=O)n2c1nc1ccccc12?
**A.** TGI [1]: 94.4 µM; TGI [2]: > 100 µM; TGI [3]: 45.9 µM; TGI [8]: > 100 µM; TGI [4]: > 100 µM; TGI [5]: > 100 µM; TGI [9]: > 100 µM; TGI [7]: > 100 µM; TGI [10]: > 100 µM

**Q.** Which TGI [1] does the source give for CC(C)(C)C1=Cc2cc3cc(C(C)(C)C)[nH]c(=O)c3cc2S(=O)(=O)N1 here?
**A.** 38.5 µM

**Q.** And the TGI [3]?
**A.** 98.5 µM

**Q.** And the TGI [8]?
**A.** > 100 µM

**Q.** What about the TGI [6] of the same compound?
**A.** 44.1 µM

**Q.** And the TGI [7]?
**A.** 39.9 µM

**Q.** And the TGI [10]?
**A.** > 100 µM

**Q.** Which results are given for COc1ccc(-c2cc(=O)c3cc4c(cc3[nH]2)OCO4)c(OC)c1OC?
**A.** TGI [1]: > 100 µM; TGI [2]: > 100 µM; TGI [3]: > 100 µM; TGI [8]: > 100 µM; TGI [4]: > 100 µM; TGI [6]: > 100 µM; TGI [7]: > 100 µM; TGI [10]: > 100 µM

**Q.** With COc1ccc(Nc2nc3ccc(C(F)(F)F)cc3nc2C(=O)O)cc1OC as the compound, how does the TGI [1] read?
**A.** > 100 µM

**Q.** And the TGI [2]?
**A.** > 100 µM

**Q.** What about the TGI [8] of the same compound?
**A.** > 100 µM

**Q.** And the TGI [4]?
**A.** > 100 µM

**Q.** And the TGI [5]?
**A.** 94.6 µM

**Q.** What about the TGI [6] of the same compound?
**A.** > 100 µM

**Q.** What about the TGI [9] of the same compound?
**A.** 71.5 µM

**Q.** And the TGI [7]?
**A.** > 100 µM

**Q.** And the TGI [10]?
**A.** > 100 µM

**Q.** Which TGI [1] does the source give for CCOC(=O)c1[nH]cc(C)c1-c1ccn(-c2ccccc2)c1 here?
**A.** > 100 µM

**Q.** What about the TGI [2] of the same compound?
**A.** > 100 µM

**Q.** What about the TGI [4] of the same compound?
**A.** > 100 µM

**Q.** What about the TGI [5] of the same compound?
**A.** > 100 µM

**Q.** And the TGI [6]?
**A.** > 100 µM

**Q.** And the TGI [9]?
**A.** > 100 µM

**Q.** And the TGI [7]?
**A.** > 100 µM

**Q.** And the TGI [10]?
**A.** > 100 µM

**Q.** Which TGI [1] does the source give for C/C(=C\c1ccccc1)C(=O)CCN1CCOCC1 here?
**A.** 32.5 µM

**Q.** What about the TGI [2] of the same compound?
**A.** 32.6 µM

**Q.** And the TGI [3]?
**A.** 20.6 µM

**Q.** And the TGI [8]?
**A.** > 62.1 µM

**Q.** What about the TGI [4] of the same compound?
**A.** 35.2 µM

**Q.** And the TGI [6]?
**A.** 42.7 µM

**Q.** What about the TGI [7] of the same compound?
**A.** 31 µM

**Q.** COCOc1ccc(OC)cc1 was tested. Which TGI [1] did it give?
**A.** > 100 µM

**Q.** And the TGI [2]?
**A.** > 100 µM

**Q.** And the TGI [3]?
**A.** > 100 µM

**Q.** What about the TGI [8] of the same compound?
**A.** > 100 µM

**Q.** And the TGI [4]?
**A.** > 100 µM

**Q.** And the TGI [6]?
**A.** > 100 µM

**Q.** What about the TGI [7] of the same compound?
**A.** > 100 µM

**Q.** What does the source list for CCNC(=O)Nc1ccccn1?
**A.** TGI [1]: > 100 µM; TGI [8]: > 100 µM; TGI [4]: > 100 µM; TGI [5]: > 100 µM; TGI [6]: > 100 µM; TGI [9]: > 100 µM; TGI [7]: > 100 µM; TGI [10]: > 100 µM

**Q.** Which results are given for CSCCC(NCc1c(O)ccc2c(-c3ccccc3)cc(=O)oc12)C(=O)O (stereo not given)?
**A.** TGI [1]: > 100 µM; TGI [2]: > 100 µM; TGI [3]: > 100 µM; TGI [8]: > 100 µM; TGI [4]: > 100 µM; TGI [5]: > 100 µM; TGI [6]: > 100 µM; TGI [7]: > 100 µM; TGI [10]: > 100 µM
